# Activity calls are given as the source filed them. No rule for the calls is given here.
# Target: Mycobacterium tuberculosis BioA (adenosylmethionine-8-amino-7-oxononanoate aminotransferase)
# Assay: inhibition of M. tuberculosis BioA aminotransferase – biochemical, plate reader, dry powder samples, dose response (AID 720590)
# Details: M. tuberculosis BioA enzyme assay
row,SMILES,AC50
1,CC(=O)c1ccc(N2CCN(C(=O)c3ccc(C)cc3)CC2)cc1,746 nM
2,O=C(Nc1ccc2snnc2c1)N1CCN(c2ccccc2)CC1,< 80 nM
3,Cc1ccc(-c2cc(C(F)(F)F)n3nc(C(=O)Nc4cccnc4)cc3n2)cc1,< 80 nM
4,COc1cccc(C(=O)N2CCN(c3ccc(C(C)=O)cc3)CC2)c1,602 nM
5,CC(=O)c1ccc(N2CCN(C(=O)c3cccc(F)c3)CC2)cc1,731 nM
6,CCc1ccc(N2CCN(C(=O)c3ccc4c(c3)OCO4)CC2)cc1,> 20000 nM (inactive)
7,Cc1ccc(/C=C(\CCCC(=O)O)c2nc3ccccc3s2)cc1[N+](=O)[O-],953 nM
8,COc1ccc(C(=O)N2CCN(c3ccc(C(C)=O)cc3)CC2)cc1,1280 nM
9,CC(C)(C)c1ccc(C(=O)N2CCN(c3ccc4c(c3)OCO4)CC2)cc1,> 20000 nM (inactive)
10,CC(=O)c1ccc(N2CCN(C(=O)c3cccc(Cl)c3)CC2)cc1,95.5 nM
11,O=C(O)CC/C(=C\c1ccc([N+](=O)[O-])cc1)c1nc2ccccc2s1,988 nM
12,CC(=O)c1ccc(N2CCN(Cc3ccc4c(c3)OCO4)CC2)cc1,133 nM
13,O=C(COc1ccc2ccc(=O)oc2c1)N1CCN(c2ccc(F)cc2)CC1,162 nM
14,CC(=O)c1ccc(N2CCN(C(=O)c3ccc4c(c3)OCO4)CC2)cc1,< 80 nM
15,O=C(Nc1ccc(F)cc1)N1CCN(c2ccccc2)CC1,6630 nM
16,Cc1ccc(/C=C(\CCC(=O)O)c2nc3ccccc3s2)cc1,7240 nM
17,COc1cccc(NC(=O)N2CCN(c3ccccc3)CC2)c1,> 20000 nM (inactive)
18,Cc1ccccc1/C=C(\CCC(=O)O)c1nc2ccccc2s1,7620 nM
19,O=C(c1ccc2c(c1)OCO2)N1CCN(c2ccc(Cl)cc2)CC1,4320 nM
20,Cc1cc(C)n2nc(C(=O)Nc3cccnc3)nc2n1,673 nM
21,COc1cccc(NC(=O)CCC2CCN(C(=O)c3ccc(C(C)=O)s3)CC2)c1,225 nM
22,O=C(c1ccc2c(c1)OCO2)N1CCN(Cc2ccccc2)CC1,> 20000 nM (inactive)
23,O=C(c1ccc2c(c1)OCO2)N1CCN(c2ccccc2)CC1,> 20000 nM (inactive)

row,SMILES,AC50
1,CCOC(=O)N1CCN(C(=O)Nc2ccc3snnc3c2)CC1,424 nM
2,CC(=O)c1ccc(N2CCN(C(=O)c3ccccc3)CC2)cc1,161 nM
3,O=C(Nc1ccc2snnc2c1)N1CCCCC1,1460 nM
4,COC(=O)c1c(C(=O)OC)c(-c2cccc(F)c2)n2c1CS(=O)C2 (stereo unspecified),115 nM
5,CC(=O)c1ccc(N2CCN(C(=O)c3cccnc3)CC2)cc1,2040 nM
6,CC(=O)c1ccc(N2CCN(C(=O)c3ccc(Br)cc3)CC2)c(F)c1,< 80 nM
7,CC(=O)c1ccc(N2CCN(C(=O)c3ccc4c(c3)OCCO4)CC2)cc1,2830 nM
8,Cc1cc(C)n2nc(C(=O)Nc3cccnc3)cc2n1,150 nM
9,Cc1ccc(/C=C(\CCC(=O)O)c2nc3ccccc3s2)cc1[N+](=O)[O-],< 80 nM
10,CC(=O)c1ccc(N2CCN(C(=O)c3ccc(F)cc3)CC2)cc1,300 nM
11,O=C(Nc1ccc2snnc2c1)N1CCOCC1,896 nM
12,CC(=O)c1ccc(N2CCN(C(=O)c3ccc(Cl)cc3)CC2)cc1,751 nM
13,CCN(CC)c1ccc2cc(C(=O)c3cccs3)c(=O)oc2c1,< 80 nM
14,COc1ccc(N2CCN(C(=O)c3ccc4c(c3)OCO4)CC2)cc1,5320 nM
15,O=C(Nc1cccnc1)c1cc2nc(-c3cccs3)cc(C(F)(F)F)n2n1,87.1 nM
16,O=C(Nc1cccc(F)c1)N1CCN(c2ccccc2)CC1,4330 nM
17,COc1cc(/C=C/C(=O)Nc2cccnc2)cc(OC)c1OC,107 nM
18,O=C(Nc1cccnc1)c1cnn2c(C(F)F)cc(C3CC3)nc12,252 nM
19,COc1ccc(-c2cc(C(F)(F)F)n3nc(C(=O)Nc4cccnc4)cc3n2)cc1,< 80 nM
20,O=C(O)CC/C(=C\c1ccccc1[N+](=O)[O-])c1nc2ccccc2s1,> 20000 nM (inactive)
21,CCc1ccc(C(=O)N2CCN(Cc3ccc4c(c3)OCO4)CC2)cc1,> 20000 nM (inactive)
22,CC(=O)c1ccc(N2CCN(C(=O)c3ccc4ncsc4c3)CC2)cc1,246 nM
23,O=C(Nc1ccc(Cl)c(-c2nc3ccccc3[nH]2)c1)c1cccnc1,181 nM

# Same assay, conditions: M. tuberculosis BioA enzyme assay, at 10 µM (top of the series)
row,SMILES,"activity change, negative = inhibition"
1,O=C(Nc1ccccc1)N1CCN(c2ccccc2)CC1,inactive
2,O=C(c1ccc2c(c1)OCO2)N1CCN(c2ccc(F)cc2)CC1,inactive
3,O=C(Nc1ccc(Cl)cc1)c1cc2nc(C3CC3)cc(C(F)(F)F)n2n1,inactive
4,Cc1nc2cc(NC(=O)N3CCN(c4ccccc4)CC3)ccc2o1,inactive
5,Cc1nc2ccc(NC(=O)N3CCN(c4ccccc4)CC3)cc2s1,inactive
6,O=C(Nc1ccncc1)c1cc2nc(C3CC3)cc(C(F)F)n2n1,inactive
7,O=C(Nc1ccc2[nH]ccc2c1)N1CCN(c2ccccc2)CC1,inactive
8,O=C(Nc1cccnc1)c1cnn2c(C(F)(F)F)cc(-c3ccccc3)nc12,inactive
9,COc1ccc(NC(=O)N2CCN(c3ccccc3)CC2)cc1,inactive
10,Cc1ccc(NC(=O)N2CCN(c3ccccc3)CC2)cc1,inactive

# Reference: PubChem BioAssay AID720590 (Broad Institute, 2013)
